Patent publication US20250198902A1, “METHOD OF ANALYSING THE MOTIONAL ACTIVITY OF PARTICLES” (RESISTELL AG, priority 2022, published 2025)

Tested on: human colon cancer cell line SW480
Test: nanomotion drug sensitivity testing on cancer cells attached to microcantilever
Assay type: cell-based
Conditions: SW480 cells in DMEM containing 10% FCS; 32 μM doxorubicin in Drug phase vs second Medium phase
Method: In particular, these figures show the variance of the deflection of a microcantilever with attached human colon cancer cell line SW480 measured in cell culture medium and subsequent exposure to inhibitory concentrations of the drug doxorubicin (FIG. 25a) and the variance for cells kept in cell culture medium (FIG. 25b). The doxorubicin susceptible SW480 was cultured under standard laboratory conditions (i.e., cell culture medium (Dulbecco's Modified Eagle Medium (DMEM) containing 10% heat-inactivated fetal calf serum (FCS), 37° C., 5% CO2) in cell culture flasks. In preparation of nanomotion experiments, cells were detached, collected in cell culture medium, and washed in DMEM containing 10% FCS. The cell suspension was used for the attachment to the cantilever, and all nanomotion measurements with the device were performed in DMEM containing 10% FCS. The colon cancer cells were attached to the cantilever. Three phases of signal recording were performed: (i) Blank phase, where the deflections of the bare cantilevers are measured, (ii) the Medium phase, where the deflections of the cantilever with attached SW480 were measured followed by (iii) the Drug phase, where the deflections of the cantilever with attached SW480 after exposure to a drug were recorded or a second Medium phase without doxorubicin. […]

## COc1cccc2c1C(=O)c1c(O)c3c(c(O)c1C2=O)C[C@@](O)(C(=O)CO)C[C@@H]3O[C@H]1C[C@H](N)[C@H](O)[C@H](C)O1 [doxorubicin]
  variance of the nanomotion signal (cantilever deflection) after drug exposure: decrease in the variance after exposure to the drug is prominent
